Experimental data from patent US8119569B2, “Benzoylpyrazole compounds, process for their production and herbicides containing them” (Ishihara Sangyo Kaisha, Ltd., priority 2006, dated 2012).

How the values were obtained:
Type in all cases: in vivo
[1] = system: guineagrass (Panicum maximum Jacq.); experiment: Test Example 3: foliar treatment, comparison with reference compounds; conditions: 3.5 to 4.3 leaf stage; for inhibition at 3.5 g/ha: Megathyrsus maximus, 18th day after application, read-out: Growth inhibition rate (%) (18th day after application) Guineagrass
Text: (§1) Upland field soil was put into a 1/1,000,000 hectare pot, and seeds of various plants were sown. […] The spray solutions thus prepared were applied for foliar treatment by a small sprayer.

[2] = system: corn (Zea mays L.); experiment: as above; conditions: 4.0 to 4.3 leaf stage, crop
Text: as §1

[3] = system: green foxtail (Setaria viridis L.); experiment: as above; conditions: 4.0 to 4.5 leaf stage; for inhibition at 3.5 g/ha / inhibition at 7 g/ha: Setaria viridis, 17th day after application, read-out: Growth inhibition rate (%) (17th day after application) Green foxtail
Text: as §1

[4] = system: velvetleaf (Abutilon theophrasti MEDIC.); experiment: as above; conditions: 3.3 to 4.3 leaf stage; for inhibition at 15 g/ha: Abutilon theophrasti, 22nd day after application, read-out: Growth inhibition rate (%) (22nd day after application) Velvet leaf
Text: as §1

[5] = system: velvetleaf (Abutilon theophrasti MEDIC.); experiment: Test Example 1: foliar treatment, upland pot; conditions: 21st day after application
Text: Upland field soil was put into a 1/170,000 hectare pot, and seeds of various plants were sown. […] The spray solutions thus prepared were applied for foliar treatment by a small sprayer.

[6] = system: rice (Oryza sativa L.) (var.: Nihonbare); experiment: Test Example 4: paddy field pot, water application, transplanted rice; conditions: 63 g/ha, 21st day after application, crop
Text: (§2) Paddy field soil was put into a 1/1,000,000 hectare pot, and seeds of barnyardgrass (Echinochloa oryzicola vasing.) and Japanese bulrush (Scirpus juncoides) were sown and lightly covered with soil. Then, pot was left to stand in a greenhouse in a state irrigated to a water depth of from 0.5 to 1 cm, and next day or two days later, tubers of Japanese ribbon waparo (Sagittaria pygmaea) were planted. Then, the irrigated water depth was maintained to be from 3 to 4 cm, and when barnyardgrass and Japanese bulrush reached 0.5 leaf stage, and Japanese ribbon waparo reached primary leaf stage, a water diluted solution of a wettable powder or an emulsifieable concentrate of the compound of the present invention prepared in accordance with a conventional preparation method, was uniformly dropwise applied by a pipette so that the amount of active ingredients would be a prescribed amount. Further, paddy field soil was put into a 1/1,000,000 pot, followed by soil puddling to an irrigated water depth of from 3 to 4 cm. Next day, rice (Oryza sativa L.) (var.: Nihonbare) of two leaf stage was transplanted in a transplantation depth of 3 cm. On the 4th day after transplantation, the compound of the present invention was applied in the same manner as described above.

[7] = system: rice (Oryza sativa L.); experiment: Test Example 2: soil application on the day after sowing; conditions: 250 g/ha, 19th to 22nd day after application, crop
Text: (§3) Upland field soil was put into a 1/170,000 hectare pot, and seeds of various plants (barnyardgrass (Echinochloa crus-galli L.), crabgrass (Digitaria sanguinalis L.), green foxtail (Setaria viridis L.), redroot pigweed (Amaranthus retroflexus L.), prickly sida (Sida spinosa L.), velvetleaf (Abutilon theophrasti MEDIC.), rice (oryza sativa L.), corn (Zea mays L.) and soybean (Glycine max Merr.)) were sown. On the day after sowing, wettable powders or emulsifiable concentrates of the compounds of the present invention prepared in accordance with a conventional preparation method, were weighed so that the active ingredients became the prescribed amounts, and diluted with water in an amount corresponding to 500 liter per 1 hectare, followed by soil application with a small sprayer.

[8] = system: soybean (Glycine max Merr.); experiment: as above; conditions: 250 g/ha, 19th to 22nd day after application, crop
Text: as §3

[9] = system: crabgrass (Digitaria sanguinalis L.); experiment: as above; conditions: 250 g/ha, 19th to 22nd day after application
Text: as §3

[10] = system: corn (Zea mays L.); experiment: as above; conditions: 250 g/ha, 19th to 22nd day after application, crop
Text: as §3

[11] = system: green foxtail (Setaria viridis L.); experiment: as above; conditions: 250 g/ha, 19th to 22nd day after application
Text: as §3

[12] = system: barnyardgrass (Echinochloa crus-galli L.); experiment: as above; conditions: 250 g/ha, 19th to 22nd day after application
Text: as §3

[13] = system: prickly sida (Sida spinosa L.); experiment: as above; conditions: 250 g/ha, 19th to 22nd day after application
Text: as §3

[14] = system: velvetleaf (Abutilon theophrasti MEDIC.); experiment: as above; conditions: 250 g/ha, 19th to 22nd day after application
Text: as §3

[15] = system: redroot pigweed (Amaranthus retroflexus L.); experiment: as above; conditions: 250 g/ha, 19th to 22nd day after application
Text: as §3

[16] = system: barnyardgrass (Echinochloa oryzicola vasing.); experiment: Test Example 4: paddy field pot, water application; conditions: 63 g/ha, 14th day after application
Text: as §2

[17] = system: Japanese bulrush (Scirpus juncoides); experiment: Test Example 4: paddy field pot, water application; conditions: 63 g/ha, 14th day after application
Text: as §2

[18] = system: Japanese ribbon waparo (Sagittaria pygmaea); experiment: Test Example 4: paddy field pot, water application; conditions: 63 g/ha, 14th day after application
Text: as §2

[19] = system: rice (Oryza sativa L.); experiment: Test Example 1: foliar treatment, upland pot; conditions: 21st day after application, crop
Text: (§4) Upland field soil was put into a 1/170,000 hectare pot, and seeds of various plants were sown. When the respective plants reached predetermined leaf stage ((1) barnyardgrass (Echinochloa crus-galli L.): 1.0 to 3.3 leaf stage, (2) crabgrass (Digitaria sanguinalis L.): 1.2 to 3.0 leaf stage, (3) green foxtail (Setaria viridis L.): 1.5 to 3.3 leaf stage, (4) redroot pigweed (Amaranthus retroflexus L.): 0.1 to 2.0 leaf stage, (5) prickly sida (Sida spinosa L.): cotyledon stage to 2.0 leaf stage, (6) velvetleaf (Abutilon theophrasti MEDIC.): 0.1 to 2.0 leaf stage, (7) rice (Oryza sativa L.): 1.3 to 3.0 leaf stage, (8) corn (Zea mays L.): 2.5 to 3.4 leaf stage, and (9) soybean (Glycine max Merr.): primary leaf stage to 0.3 leaf stage), wettable powders or emulsifiable concentrates of the compounds of the present invention prepared in accordance with a conventional preparation method, were weighed so that the active ingredients became the prescribed amounts, and diluted with water in an amount corresponding to 500 liter per 1 hectare (containing 0.1 vol % of an agricultural spreader (“KUSARINOH”, manufactured by NIHON NOHYAKU CO., LTD.)). The spray solutions thus prepared were applied for foliar treatment by a small sprayer.

[20] = system: soybean (Glycine max Merr.); experiment: Test Example 1: foliar treatment, upland pot; conditions: 21st day after application, crop
Text: as §4

[21] = system: crabgrass (Digitaria sanguinalis L.); experiment: Test Example 1: foliar treatment, upland pot; conditions: 21st day after application
Text: as §4

[22] = system: corn (Zea mays L.); experiment: Test Example 1: foliar treatment, upland pot; conditions: 21st day after application, crop
Text: as §4

[23] = system: green foxtail (Setaria viridis L.); experiment: Test Example 1: foliar treatment, upland pot; conditions: 21st day after application
Text: as §4

[24] = system: barnyardgrass (Echinochloa crus-galli L.); experiment: Test Example 1: foliar treatment, upland pot; conditions: 21st day after application
Text: as §4

[25] = system: prickly sida (Sida spinosa L.); experiment: Test Example 1: foliar treatment, upland pot; conditions: 21st day after application
Text: as §4

[26] = system: redroot pigweed (Amaranthus retroflexus L.); experiment: Test Example 1: foliar treatment, upland pot; conditions: 21st day after application
Text: as §4

SMILES: CCOC(=O)OC(C)Oc1c(C(=O)c2ccc(S(C)(=O)=O)c(OCCOC)c2C)cnn1C (stereo not shown) [Compound No. 2, 1-(4-(3-(2-methoxyethoxy)-2-methyl-4-(methylsulfonyl)benzoyl)-1-methyl-1H-pyrazol-5-yloxy)ethyl ethylcarbonate]
- Growth inhibition rate (%) (18th day after application) Guineagrass ([1]; 3.5 g/ha): 90%
- Growth inhibition rate (%) (21st day after application) Corn ([2]; 120 g/ha): 4%
- Growth inhibition rate (%) (17th day after application) Green foxtail ([3]; 3.5 g/ha): 93%
- Growth inhibition rate (%) (17th day after application) Green foxtail ([3]; 7 g/ha): 98%
- Growth inhibition rate (%) (22nd day after application) Velvet leaf ([4]; 15 g/ha): 94%
- Growth inhibition rate (%) Velvetleaf ([5]; 63 g/ha): 100%
- Growth inhibition rate (%) Rice [6]: 50%
- Growth inhibition rate (%) Rice [7]: 98%
- Growth inhibition rate (%) Soybean [8]: 0%
- Growth inhibition rate (%) Crabgrass [9]: 100%
- Growth inhibition rate (%) Corn [10]: 0%
- Growth inhibition rate (%) Green foxtail [11]: 100%
- Growth inhibition rate (%) Barnyardgrass [12]: 100%
- Growth inhibition rate (%) Prickly sida [13]: 70%
- Growth inhibition rate (%) Velvetleaf [14]: 60%
- Growth inhibition rate (%) Redroot pigweed [15]: 100%
- Growth inhibition rate (%) Barnyardgrass [16]: 100%
- Growth inhibition rate (%) Japanese bulrush [17]: 60%
- Growth inhibition rate (%) Japanese ribbon waparo [18]: 95%
- Growth inhibition rate (%) Rice ([19]; 7 g/ha): 80%
- Growth inhibition rate (%) Rice ([19]; 63 g/ha): 70%
- Growth inhibition rate (%) Soybean ([20]; 7 g/ha): 80%
- Growth inhibition rate (%) Soybean ([20]; 63 g/ha): 98%
- Growth inhibition rate (%) Crabgrass ([21]; 7 g/ha): 95%
- Growth inhibition rate (%) Crabgrass ([21]; 63 g/ha): 100%
- Growth inhibition rate (%) Corn ([22]; 7 g/ha): 0%
- Growth inhibition rate (%) Corn ([22]; 63 g/ha): 0%
- Growth inhibition rate (%) Green foxtail ([23]; 7 g/ha): 95%
- Growth inhibition rate (%) Green foxtail ([23]; 63 g/ha): 100%
- Growth inhibition rate (%) Barnyardgrass ([24]; 7 g/ha): 100%
- Growth inhibition rate (%) Barnyardgrass ([24]; 63 g/ha): 100%
- Growth inhibition rate (%) Prickly sida ([25]; 7 g/ha): 40%
- Growth inhibition rate (%) Prickly sida ([25]; 63 g/ha): 85%
- Growth inhibition rate (%) Redroot pigweed ([26]; 7 g/ha): 100%
- Growth inhibition rate (%) Redroot pigweed ([26]; 63 g/ha): 100%

SMILES: CCOC(=O)OC(C)Oc1c(C(=O)c2ccc(S(C)(=O)=O)c(COC)c2C)cnn1C (racemic) [compound 7]
- Growth inhibition rate (%) Velvetleaf ([5]; 7 g/ha): 98%
- Growth inhibition rate (%) Rice [6]: 70%
- Growth inhibition rate (%) Rice [7]: 90%
- Growth inhibition rate (%) Soybean [8]: 0%
- Growth inhibition rate (%) Crabgrass [9]: 90%
- Growth inhibition rate (%) Corn [10]: 0%
- Growth inhibition rate (%) Green foxtail [11]: 40%
- Growth inhibition rate (%) Barnyardgrass [12]: 100%
- Growth inhibition rate (%) Prickly sida [13]: 80%
- Growth inhibition rate (%) Velvetleaf [14]: 70%
- Growth inhibition rate (%) Redroot pigweed [15]: 80%
- Growth inhibition rate (%) Barnyardgrass [16]: 100%
- Growth inhibition rate (%) Japanese bulrush [17]: 70%
- Growth inhibition rate (%) Japanese ribbon waparo [18]: 60%
- Growth inhibition rate (%) Rice ([19]; 7 g/ha): 70%
- Growth inhibition rate (%) Soybean ([20]; 7 g/ha): 95%
- Growth inhibition rate (%) Crabgrass ([21]; 7 g/ha): 90%
- Growth inhibition rate (%) Corn ([22]; 7 g/ha): 0%
- Growth inhibition rate (%) Green foxtail ([23]; 7 g/ha): 90%
- Growth inhibition rate (%) Barnyardgrass ([24]; 7 g/ha): 95%
- Growth inhibition rate (%) Prickly sida ([25]; 7 g/ha): 80%
- Growth inhibition rate (%) Redroot pigweed ([26]; 7 g/ha): 85%

SMILES: COCCOc1c(S(C)(=O)=O)ccc(C(=O)c2cnn(C(C)C)c2O)c1Cl [Reference Compound 2]
- inhibition at 3.5 g/ha [1]: 0%
- inhibition at 120 g/ha ([2]; Zea mays, 21st day after application, read-out: Growth inhibition rate (%) (21st day after application) Corn): 28%
- inhibition at 3.5 g/ha ([3]; 3.5 g/ha): 30%
- inhibition at 7 g/ha ([3]; 7 g/ha): 45%
- inhibition at 15 g/ha [4]: 40%

SMILES: CCn1ncc(C(=O)c2ccc(S(C)(=O)=O)c(OCCOC)c2Cl)c1O [Reference Compound 1]
- inhibition at 3.5 g/ha [1]: 0%
- inhibition at 3.5 g/ha ([3]; 3.5 g/ha): 35%
- inhibition at 7 g/ha ([3]; 7 g/ha): 55%
- inhibition at 15 g/ha [4]: 20%

SMILES: COCCOc1c(S(C)(=O)=O)ccc(C(=O)c2cnn(C)c2OC(C)OC(=O)OC(C)C)c1C (racemic) [compound 4]
- Growth inhibition rate (%) Velvetleaf ([5]; 7 g/ha): 98%
- Growth inhibition rate (%) Rice [6]: 50%
- Growth inhibition rate (%) Rice [7]: 90%
- Growth inhibition rate (%) Soybean [8]: 0%
- Growth inhibition rate (%) Crabgrass [9]: 100%
- Growth inhibition rate (%) Corn [10]: 0%
- Growth inhibition rate (%) Green foxtail [11]: 95%
- Growth inhibition rate (%) Barnyardgrass [12]: 100%
- Growth inhibition rate (%) Prickly sida [13]: 90%
- Growth inhibition rate (%) Velvetleaf [14]: 70%
- Growth inhibition rate (%) Redroot pigweed [15]: 95%
- Growth inhibition rate (%) Barnyardgrass [16]: 100%
- Growth inhibition rate (%) Japanese bulrush [17]: 95%
- Growth inhibition rate (%) Japanese ribbon waparo [18]: 90%
- Growth inhibition rate (%) Rice ([19]; 7 g/ha): 30%
- Growth inhibition rate (%) Soybean ([20]; 7 g/ha): 90%
- Growth inhibition rate (%) Crabgrass ([21]; 7 g/ha): 90%
- Growth inhibition rate (%) Corn ([22]; 7 g/ha): 0%
- Growth inhibition rate (%) Green foxtail ([23]; 7 g/ha): 100%
- Growth inhibition rate (%) Barnyardgrass ([24]; 7 g/ha): 100%
- Growth inhibition rate (%) Prickly sida ([25]; 7 g/ha): 40%
- Growth inhibition rate (%) Redroot pigweed ([26]; 7 g/ha): 90%
